In ChEMBL document CHEMBL4840360, “Design, Synthesis, and Pharmacological Evaluation of Biaryl-Containing PD-1/PD-L1 Interaction Inhibitors Bearing a Unique Difluoromethyleneoxy Linkage” (J Med Chem, 2021):
One block for each molecule: values may come before it. Active and inactive are the calls of the source. The calls are words filed in the database; no cut-off is given here.

What was measured:
[1] = Half life in rat at 1 mg/kg, iv; type: ADME, organism-based; details: in vivo
[2] = Observed volume of distribution at steady state in rat at 1 mg/kg, iv; type: ADME, organism-based; details: in vivo, read-out: Vdss
[3] = AUClast in rat at 1 mg/kg, iv; type: ADME, organism-based; design: time 0 - last, route intravenous, dose 1 mg/kg; details: in vivo
[4] = Cmax in rat at 3 mg/kg, po; type: ADME, organism-based; design: route oral, dose 3 mg/kg; details: in vivo
[5] = AUClast in rat at 3 mg/kg, po; type: ADME, organism-based; design: time 0 - last, route oral, dose 3 mg/kg; details: in vivo
[6] = Observed clearance in rat at 1 mg/kg, iv; type: ADME, organism-based; details: in vivo
[7] = target: T1, Programmed cell death protein 1/Programmed cell death 1 ligand 1 (Homo sapiens, UniProt Q15116+Q9NZQ7); experiment: Inhibition of PD-1/PD-L1 interaction (unknown origin) by HTRF assay; type: protein-complex assay
T1 sequence (Q15116 whole entry): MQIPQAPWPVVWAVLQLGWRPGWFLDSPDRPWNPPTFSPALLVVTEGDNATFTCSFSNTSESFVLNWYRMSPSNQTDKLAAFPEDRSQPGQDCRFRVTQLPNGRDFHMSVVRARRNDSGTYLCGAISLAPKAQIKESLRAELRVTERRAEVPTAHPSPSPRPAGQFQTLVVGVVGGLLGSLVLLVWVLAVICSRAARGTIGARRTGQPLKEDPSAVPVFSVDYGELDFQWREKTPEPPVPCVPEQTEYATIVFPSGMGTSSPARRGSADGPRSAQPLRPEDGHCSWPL
T1 sequence (Q9NZQ7 whole entry): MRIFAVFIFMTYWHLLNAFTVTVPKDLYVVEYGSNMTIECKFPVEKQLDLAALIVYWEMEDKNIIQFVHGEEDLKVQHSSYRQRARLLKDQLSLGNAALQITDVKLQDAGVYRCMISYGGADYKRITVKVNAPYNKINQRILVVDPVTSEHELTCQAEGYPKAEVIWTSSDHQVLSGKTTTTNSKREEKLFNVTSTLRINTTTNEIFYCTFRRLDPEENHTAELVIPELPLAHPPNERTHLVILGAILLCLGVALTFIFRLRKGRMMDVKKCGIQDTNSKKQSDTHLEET

[8] = Tmax in rat at 3 mg/kg, po; type: ADME, organism-based; details: in vivo
[9] = target: T1, Programmed cell death protein 1/Programmed cell death 1 ligand 1; experiment: Inhibition of PD-1/PD-L1 interaction in human PBMCs cocultured with H1299 cells assessed as increase in INFgamma expression at 0.1 uM incubated for 72 hrs in presence of alphaCD3/alphaCD28 by ELISA; type: cell-based; details: PBMC
[10] = tested on: Hepa1-6; experiment: Antitumor activity against […] Hepa1-6 cells xenografted in C57BL/6 […] mouse model assessed as tumor growth inhibition at 1 mg/kg, IM administered every other day and measured three times per week; type: functional, organism-based
[11] = target: T2, Programmed cell death protein 1/Programmed cell death 1 ligand 1 (Mus musculus) (UniProt Q9EP73+Q02242); experiment: Inhibition of PD1/PDL1 protein-protein interaction in mouse CD8-positive T cells cocultured with Hepa1-6 cells assessed as increase in ratio of IFNgamma+ CD8+ T cells at 0.75 to 3 uM incubated for 48 hrs in presence of alphaCD3/alphaCD28 and IL-2 stimulation by flow cytometry analysis; type: cell-based; details: dose 0.75-3 µM
[12] = tested on: Hepa1-6; experiment: Antitumor activity against […] Hepa1-6 cells xenografted in C57BL/6 mouse model assessed as increase in infiltration of IFNgamma+ GrzB+ CD8+ T-cells in tumor by flow cytometry analysis; type: functional, cell-based
[13] = Microsomal stability in mouse assessed as half life; type: ADME; details: microsomes
[14] = target: T2, Programmed cell death protein 1/Programmed cell death 1 ligand 1 (Mus musculus); experiment: Inhibition of PD1/PDL1 protein-protein interaction in mouse CD8-positive T cells cocultured with Hepa1-6 cells assessed as increase in IFNgamma secretion incubated for 48 hrs in presence of alphaCD3/alphaCD28 and IL-2 stimulation by ELISA; type: cell-based; details: dose 0.75-3 µM
[15] = Microsomal stability in mouse assessed as clearance; type: ADME; details: microsomes
[16] = Antitumor activity against […] Hepa1-6 cells xenografted in C57BL/6 mouse syngeneic model assessed as tumor growth inhibition at 1 mg/kg, IM administered every other day and measured three times per week; type: functional; details: Hepa1-6, im, read-out: TGI
[17] = target: T1, Programmed cell death protein 1/Programmed cell death 1 ligand 1; experiment: Inhibition of PD-1/PD-L1 interaction in human Jurkat T cells expressing PD-1 cocultured with CHO cells expressing PD-Ll/TCR assessed as activation of Jurkat cells by luciferase reporter gene assay; type: cell-based
[18] = target: T2, Programmed cell death protein 1/Programmed cell death 1 ligand 1 (Mus musculus); experiment: Inhibition of PD1/PDL1 protein-protein interaction in mouse CD8-positive T cells cocultured with Hepa1-6 cells assessed as increase in ratio of IFNgamma+ GrzB+ CD8+ T cells at 0.75 to 3 uM incubated for 48 hrs in presence of alphaCD3/alphaCD28 and IL-2 stimulation by flow cytometry analysis; type: cell-based; details: dose 0.75-3 µM
[19] = tested on: Hepa1-6; experiment: Antitumor activity against […] Hepa1-6 cells xenografted in C57BL/6 mouse model assessed as increase in infiltration of GrzB+ CD8+ T-cells in tumor by flow cytometry analysis; type: functional, cell-based
[20] = tested on: Hepa1-6; experiment: Antitumor activity against […] Hepa1-6 cells xenografted in C57BL/6 mouse model assessed as increase in infiltration of IFNgamma+ CD8+ T-cells in tumor by flow cytometry analysis; type: functional, cell-based
[21] = target: T2, Programmed cell death protein 1/Programmed cell death 1 ligand 1 (Mus musculus); experiment: Inhibition of PD1/PDL1 protein-protein interaction in mouse CD8-positive T cells cocultured with Hepa1-6 cells assessed as increase in CD107a expression in CD8+ T cells incubated for 5 hrs in presence of alphaCD3/alphaCD28 and IL-2 stimulation by flow cytometry analysis; type: cell-based; details: dose 0.75-3 µM
[22] = target: T2, Programmed cell death protein 1/Programmed cell death 1 ligand 1 (Mus musculus); experiment: Inhibition of PD1/PDL1 protein-protein interaction in mouse CD8-positive T cells cocultured with Hepa1-6 cells assessed as increase in ratio of GrzB+ CD8+ T cells at 0.75 to 3 uM incubated for 48 hrs in presence of alphaCD3/alphaCD28 and IL-2 stimulation by flow cytometry analysis; type: cell-based; details: dose 0.75-3 µM

half-life [1]: 1.32 h | Vd [2]: 4.18 L/kg | AUC(0-t) [3]: 188 ng·h/mL | Cmax [4]: 4.82 ng/mL | AUC(0-t) [5]: 2.83 ng·h/mL | clearance [6]: 89 mL/min/kg | Tmax [8]: 0.33 h
Compound: Cc1c(-c2ccc3c(c2)OCCO3)cccc1C(F)(F)Oc1cc(OCc2cncc(C#N)c2)c(CNC(CO)(CO)CO)cc1Cl
IC50 [7]: 5.68 nM | inhibition [9]: Active

Compound: Cc1c(-c2ccc3c(c2)OCCO3)cccc1C(F)(F)Oc1cc(OCc2ccnc(C#N)c2)c(CN2CCCC[C@H]2C(=O)N[C@@H]2C(O)O[C@H](CO)[C@@H](O)[C@@H]2O)cc1Cl (some centres not stated)
IC50 [7]: 28.8 nM

Compound: Cc1c(-c2ccc3c(c2)OCCO3)cccc1C(F)(F)Oc1cc(OCc2ccnc(C#N)c2)c(CNC(CO)(CO)CO)cc1Cl
IC50 [7]: 6.32 nM

half-life [1]: 0.71 h | Vd [2]: 5.31 L/kg | AUC(0-t) [3]: 117 ng·h/mL | Cmax [4]: 0.698 ng/mL | AUC(0-t) [5]: 0.701 ng·h/mL | clearance [6]: 143 mL/min/kg | Tmax [8]: 2.83 h
Compound: Cc1c(-c2ccc3c(c2)OCCO3)cccc1C(F)(F)Oc1cc(OCc2ccnc(C#N)c2)c(CN2CCCC[C@H]2C(=O)O)cc1Cl
IC50 [7]: 2.99 nM | inhibition [9]: Active

Compound: CON(C)C(=O)[C@@H]1CCCCN1Cc1cc(Cl)c(OC(F)(F)c2cccc(-c3ccc4c(c3)OCCO4)c2C)cc1OCc1ccnc(C#N)c1
IC50 [7]: > 1000 nM

Compound: Cc1c(-c2ccc3c(c2)OCCO3)cccc1C(F)(F)Oc1cc(OCc2cccc3nonc23)c(CNC(CO)(CO)CO)cc1Cl
IC50 [7]: 7.05 nM

half-life [1]: 4.84 h | Vd [2]: 3.92 L/kg | AUC(0-t) [3]: 464 ng·h/mL | half-life [13]: 1.25 h | clearance [6]: 40 mL/min/kg | microsomal CLint [15]: 46.1 µL/min/mg
Compound: Cc1c(-c2ccc3c(c2)OCCO3)cccc1C(F)(F)Oc1cc(OCc2ccnc(C#N)c2)c(CN[C@@H]2C(O)O[C@H](CO)[C@@H](O)[C@@H]2O)cc1Cl (some centres not stated)
Activity [10]: Active | inhibition [11]: Active | Activity [12]: Active | IC50 [7]: 10.2 nM | inhibition [14]: Dose-Dependent Effect | inhibition [9]: Active | inhibition in vivo at 1 mg/kg [16]: 53.1% | IC50 [17]: 3160 nM | inhibition [18]: Active | Activity [19]: Active | Activity [20]: Active | inhibition [21]: Dose-Dependent Effect | inhibition [22]: Active

half-life [1]: 0.47 h | Vd [2]: 1.33 L/kg | AUC(0-t) [3]: 142 ng·h/mL | half-life [13]: 1.1 h | clearance [6]: 124 mL/min/kg | microsomal CLint [15]: 52.5 µL/min/mg
Compound: Cc1cc(OCc2cccc(-c3ccc4c(c3)OCCO4)c2C)cc(OCc2cccc(C#N)c2)c1CN[C@H](CO)C(=O)O
IC50 [7]: 48.2 nM

Compound: Cc1cc(OC(F)(F)c2cccc(-c3ccc4c(c3)OCCO4)c2C)cc(OCc2cccc(C#N)c2)c1CNC(C)(CO)CO
IC50 [7]: 16.3 nM

Compound: Cc1cc(OC(F)(F)c2cccc(-c3ccc4c(c3)OCCO4)c2C)cc(OCc2cccc(C#N)c2)c1CNC(CO)(CO)CO
IC50 [7]: 30.5 nM

Compound: CC(=O)OCOC(=O)[C@@H]1CCCCN1Cc1cc(Cl)c(OC(F)(F)c2cccc(-c3ccc4c(c3)OCCO4)c2C)cc1OCc1ccnc(C#N)c1
IC50 [7]: 28.8 nM

half-life [1]: 3.14 h | Vd [2]: 18 L/kg | AUC(0-t) [3]: 141 ng·h/mL | clearance [6]: 131 mL/min/kg
Compound: Cc1c(-c2ccc3c(c2)OCCO3)cccc1C(F)(F)Oc1cc(OCc2ccnc(C#N)c2)c(CN[C@@H](CO)[C@@H](O)[C@@H](O)[C@H](O)CO)cc1Cl
IC50 [7]: 7.1 nM | inhibition [9]: Active

Compound: CC(=O)OCCOC(=O)[C@@H]1CCCCN1Cc1cc(Cl)c(OC(F)(F)c2cccc(-c3ccc4c(c3)OCCO4)c2C)cc1OCc1ccnc(C#N)c1
IC50 [7]: > 1000 nM

Compound: Cc1cc(OC(F)(F)c2cccc(-c3ccc4c(c3)OCCO4)c2C)cc(OCc2cccc(C#N)c2)c1CN[C@H](CO)C(=O)O
IC50 [7]: 31.9 nM

Compound: Cc1cc(OC(F)(F)c2cccc(-c3ccc4c(c3)OCCO4)c2C)cc(OCc2cccc(C#N)c2)c1CN[C@@H](C(=O)O)[C@H](C)O
IC50 [7]: 54.7 nM

Compound: Cc1c(-c2ccc3c(c2)OCCO3)cccc1C(F)(F)Oc1cc(OCc2cccc(C#N)c2)c(CNC(C)(CO)CO)cc1Cl
IC50 [7]: 5.93 nM

Compound: Cc1c(-c2ccc3c(c2)OCCO3)cccc1C(F)(F)Oc1cc(OCc2ccnc(C#N)c2)c(CN2CCCC[C@H]2C(=O)OCC(F)(F)F)cc1Cl
IC50 [7]: > 1000 nM
